In US6967102B1, “Nitric oxide manipulation of muscle satellite cell activation” (University of Manitoba, priority 1999, dated 2005):

Target: T1, NOS (Mus musculus, UniProt Q9Z0J4)
T1 construct: confirmed using NADPH-diaphorase enzyme histochemistry on frozen sections; from tissue; host or cells: frozen sections of tibialis anterior muscle from normal mice pretreated ip with saline or L-NAME
Test: NADPH-diaphorase enzyme histochemistry of NOS activity on muscle sections
Type: in vivo, mice
Experimental: Sections ([…]) were collected on glass slides and stained with toluidine blue. The inhibition of NOS enzyme activity by L-NAME treatment 30 min. before crush was confirmed using NADPH-diaphorase enzyme histochemistry on frozen sections with jejunal epithelium as the positive control, according to Beesley (1995) Histochem. J. 27: 757–769.
i) satellite cells are identified and examined for hypertrophy and position using immunostaining for two c-met receptor, m-cadherin, neural cell adhesion molecule (N-CAM or leu19) and CD34, as markers of muscle satellite precursor cells (Irintchev A, Zeschnigk M. Starzinski-Powitz A, and Wernig A. (1994). Dev. […] In other sections c-met and HGF colocalization are used to assess activation (after (Tatsumi R, Anderson J E, Nevoret C J, Halevy 0, and Allen R E. (1998). Dev. Biol. 194:114–128). Routine fluorescent or peroxidase-conjugated secondary antibodies are used to visualize labelled satellite cells. • ii) NOS activity are determined to assess the effect of treatments that manipulate NOS activity. […] This method is modified to study homogenized tissue NOS activity. • iii) NOS expression is determined using in situ hybridisation (and Northern blotting) with a riboprobe specific for NOS-Iμ (the muscle isoform of NOS-I), made with custom primers (Kobzik L, Reid M B, Bredt D S, and Stamler J S. (1994). […]

T1 sequence (Q9Z0J4 1-1463 isoform Q9Z0J4-5): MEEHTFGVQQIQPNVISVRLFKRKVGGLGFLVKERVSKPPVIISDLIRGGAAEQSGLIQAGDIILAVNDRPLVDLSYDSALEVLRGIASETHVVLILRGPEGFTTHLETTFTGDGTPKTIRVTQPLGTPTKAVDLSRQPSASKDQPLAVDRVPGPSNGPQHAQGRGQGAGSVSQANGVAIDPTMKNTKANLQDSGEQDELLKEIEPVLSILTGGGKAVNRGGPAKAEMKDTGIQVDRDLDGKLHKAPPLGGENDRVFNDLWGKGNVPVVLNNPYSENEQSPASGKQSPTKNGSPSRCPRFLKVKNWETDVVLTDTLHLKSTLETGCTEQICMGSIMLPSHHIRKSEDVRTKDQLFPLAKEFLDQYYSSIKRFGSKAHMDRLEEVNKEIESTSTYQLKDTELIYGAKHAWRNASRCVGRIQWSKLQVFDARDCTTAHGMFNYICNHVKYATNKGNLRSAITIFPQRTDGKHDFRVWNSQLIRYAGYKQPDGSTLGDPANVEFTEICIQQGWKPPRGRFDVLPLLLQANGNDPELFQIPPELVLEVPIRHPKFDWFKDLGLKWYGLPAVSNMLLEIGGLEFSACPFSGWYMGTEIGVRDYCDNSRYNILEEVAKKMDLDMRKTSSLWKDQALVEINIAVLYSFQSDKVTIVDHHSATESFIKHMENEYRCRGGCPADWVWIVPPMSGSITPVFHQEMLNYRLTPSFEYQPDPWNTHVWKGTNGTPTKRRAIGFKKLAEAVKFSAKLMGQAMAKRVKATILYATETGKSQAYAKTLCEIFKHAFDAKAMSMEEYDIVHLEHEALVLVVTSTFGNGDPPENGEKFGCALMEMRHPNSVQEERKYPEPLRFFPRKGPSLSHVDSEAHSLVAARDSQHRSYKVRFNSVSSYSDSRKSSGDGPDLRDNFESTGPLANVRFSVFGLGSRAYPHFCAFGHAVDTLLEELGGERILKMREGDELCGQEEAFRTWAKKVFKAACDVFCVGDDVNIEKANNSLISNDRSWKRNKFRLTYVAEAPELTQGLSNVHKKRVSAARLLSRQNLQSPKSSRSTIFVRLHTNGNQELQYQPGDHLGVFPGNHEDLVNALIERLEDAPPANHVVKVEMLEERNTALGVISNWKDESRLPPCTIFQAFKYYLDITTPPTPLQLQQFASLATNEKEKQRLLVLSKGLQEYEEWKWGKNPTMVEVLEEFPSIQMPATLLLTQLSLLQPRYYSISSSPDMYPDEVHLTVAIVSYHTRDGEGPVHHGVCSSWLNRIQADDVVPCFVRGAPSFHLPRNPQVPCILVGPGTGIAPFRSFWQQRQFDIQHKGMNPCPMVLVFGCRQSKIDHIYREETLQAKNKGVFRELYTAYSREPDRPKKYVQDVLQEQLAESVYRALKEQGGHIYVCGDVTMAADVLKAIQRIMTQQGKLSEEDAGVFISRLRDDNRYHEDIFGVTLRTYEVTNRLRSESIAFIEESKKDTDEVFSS

## COC(=O)[C@@H](N)CCCNC(=N)N[N+](=O)[O-] [L-NAME, Nω-nitro-L-arginine methyl ester]
L-NAME, after ip injection
  duration of decreased NOS activity: 40 min
pre-treatment with L-NAME, muscle sections
  NOS activity by NADPH-diaphorase staining: inhibited NOS activity
